{
  "source": "patent US8192962B2",
  "about": "“Processes for detecting toxic substances” (Daikin Industries, Ltd., priority 2001, dated 2012)",
  "system": "Transport facilitation protein genes",
  "assay": "DNA chip mRNA expression in yeast, transport facilitation protein genes (Table 5)",
  "assay_type": "cell-based, Saccharomyces cerevisiae S288C",
  "method_in_brief": "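Expression change after 2 h toxicant exposure (growth-inhibiting, sub-lethal) of log-phase S. cerevisiae S288C at 25° C. Oligo-dT-purified mRNA was labeled with Cy3-dUTP or Cy5-dUTP and hybridized >12 h at 65° C. to a genome-wide chip; ratio of scanned fluorescence to control.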",
  "data": [
    {"smiles": "COc1cc(CNC(=O)CCCCC=CC(C)C)ccc1O", "note": "[(12), 8-methyl-N-vanillyl-6-nonenamide]", "values": [
      {"measurement": "The level of expressed mRNA in the presence of chemical substance/The level of expressed mRNA in the absence of chemical substance", "setting": "yeast gene YGR281W", "value": 2.4},
      {"measurement": "The level of expressed mRNA in the presence of chemical substance/The level of expressed mRNA in the absence of chemical substance", "setting": "yeast gene YHL035C", "value": 1.4},
      {"measurement": "The level of expressed mRNA in the presence of chemical substance/The level of expressed mRNA in the absence of chemical substance", "setting": "yeast gene YHL040C", "value": 2.0},
      {"measurement": "The level of expressed mRNA in the presence of chemical substance/The level of expressed mRNA in the absence of chemical substance", "setting": "yeast gene YHL047C", "value": 2.6},
      {"measurement": "The level of expressed mRNA in the presence of chemical substance/The level of expressed mRNA in the absence of chemical substance", "setting": "yeast gene YHR026W", "value": 0.7},
      {"measurement": "The level of expressed mRNA in the presence of chemical substance/The level of expressed mRNA in the absence of chemical substance", "setting": "yeast gene YHR092C", "value": 1.0},
      {"measurement": "The level of expressed mRNA in the presence of chemical substance/The level of expressed mRNA in the absence of chemical substance", "setting": "yeast gene YHR094C", "value": 0.9},
      {"measurement": "The level of expressed mRNA in the presence of chemical substance/The level of expressed mRNA in the absence of chemical substance", "setting": "yeast gene YHR175W", "value": 1.4},
      {"measurement": "The level of expressed mRNA in the presence of chemical substance/The level of expressed mRNA in the absence of chemical substance", "setting": "yeast gene YIL006W", "value": 0.9},
      {"measurement": "The level of expressed mRNA in the presence of chemical substance/The level of expressed mRNA in the absence of chemical substance", "setting": "yeast gene YIL022W", "value": 0.9},
      {"measurement": "The level of expressed mRNA in the presence of chemical substance/The level of expressed mRNA in the absence of chemical substance", "setting": "yeast gene YIL056W", "value": 1.0},
      {"measurement": "The level of expressed mRNA in the presence of chemical substance/The level of expressed mRNA in the absence of chemical substance", "setting": "yeast gene YIL088C", "value": 0.9},
      {"measurement": "The level of expressed mRNA in the presence of chemical substance/The level of expressed mRNA in the absence of chemical substance", "setting": "yeast gene YJL034W", "value": 1.6},
      {"measurement": "The level of expressed mRNA in the presence of chemical substance/The level of expressed mRNA in the absence of chemical substance", "setting": "yeast gene YJL212C", "value": 0.4},
      {"measurement": "The level of expressed mRNA in the presence of chemical substance/The level of expressed mRNA in the absence of chemical substance", "setting": "yeast gene YJL219W", "value": 1.1},
      {"measurement": "The level of expressed mRNA in the presence of chemical substance/The level of expressed mRNA in the absence of chemical substance", "setting": "yeast gene YJR077C", "value": 1.0},
      {"measurement": "The level of expressed mRNA in the presence of chemical substance/The level of expressed mRNA in the absence of chemical substance", "setting": "yeast gene YJR106W", "value": 0.9},
      {"measurement": "The level of expressed mRNA in the presence of chemical substance/The level of expressed mRNA in the absence of chemical substance", "setting": "yeast gene YJR121W", "value": 0.8},
      {"measurement": "The level of expressed mRNA in the presence of chemical substance/The level of expressed mRNA in the absence of chemical substance", "setting": "yeast gene YKL016C", "value": 1.0},
      {"measurement": "The level of expressed mRNA in the presence of chemical substance/The level of expressed mRNA in the absence of chemical substance", "setting": "yeast gene YKL146W", "value": 1.1},
      {"measurement": "The level of expressed mRNA in the presence of chemical substance/The level of expressed mRNA in the absence of chemical substance", "setting": "yeast gene YKR039W", "value": 1.5},
      {"measurement": "The level of expressed mRNA in the presence of chemical substance/The level of expressed mRNA in the absence of chemical substance", "setting": "yeast gene YKR067W", "value": 1.0},
      {"measurement": "The level of expressed mRNA in the presence of chemical substance/The level of expressed mRNA in the absence of chemical substance", "setting": "yeast gene YLL028W", "value": 1.3},
      {"measurement": "The level of expressed mRNA in the presence of chemical substance/The level of expressed mRNA in the absence of chemical substance", "setting": "yeast gene YLL055W", "value": 0.7},
      {"measurement": "The level of expressed mRNA in the presence of chemical substance/The level of expressed mRNA in the absence of chemical substance", "setting": "yeast gene YLR081W", "value": 1.0},
      {"measurement": "The level of expressed mRNA in the presence of chemical substance/The level of expressed mRNA in the absence of chemical substance", "setting": "yeast gene YLR295C", "value": 0.5},
      {"measurement": "The level of expressed mRNA in the presence of chemical substance/The level of expressed mRNA in the absence of chemical substance", "setting": "yeast gene YLR348C", "value": 0.9},
      {"measurement": "The level of expressed mRNA in the presence of chemical substance/The level of expressed mRNA in the absence of chemical substance", "setting": "yeast gene YLR378C", "value": 1.2},
      {"measurement": "The level of expressed mRNA in the presence of chemical substance/The level of expressed mRNA in the absence of chemical substance", "setting": "yeast gene YML116W", "value": 0.5},
      {"measurement": "The level of expressed mRNA in the presence of chemical substance/The level of expressed mRNA in the absence of chemical substance", "setting": "yeast gene YMR011W", "value": 0.8},
      {"measurement": "The level of expressed mRNA in the presence of chemical substance/The level of expressed mRNA in the absence of chemical substance", "setting": "yeast gene YMR162C", "value": 0.7},
      {"measurement": "The level of expressed mRNA in the presence of chemical substance/The level of expressed mRNA in the absence of chemical substance", "setting": "yeast gene YMR203W", "value": 0.7},
      {"measurement": "The level of expressed mRNA in the presence of chemical substance/The level of expressed mRNA in the absence of chemical substance", "setting": "yeast gene YNL055C", "value": 1.7},
      {"measurement": "The level of expressed mRNA in the presence of chemical substance/The level of expressed mRNA in the absence of chemical substance", "setting": "yeast gene YNL259C", "value": 0.7},
      {"measurement": "The level of expressed mRNA in the presence of chemical substance/The level of expressed mRNA in the absence of chemical substance", "setting": "yeast gene YNR072W", "value": 1.0},
      {"measurement": "The level of expressed mRNA in the presence of chemical substance/The level of expressed mRNA in the absence of chemical substance", "setting": "yeast gene YOL119C", "value": 0.9},
      {"measurement": "The level of expressed mRNA in the presence of chemical substance/The level of expressed mRNA in the absence of chemical substance", "setting": "yeast gene YOL156W", "value": 0.9},
      {"measurement": "The level of expressed mRNA in the presence of chemical substance/The level of expressed mRNA in the absence of chemical substance", "setting": "yeast gene YOL163W", "value": 1.0},
      {"measurement": "The level of expressed mRNA in the presence of chemical substance/The level of expressed mRNA in the absence of chemical substance", "setting": "yeast gene YOR035C", "value": 1.1},
      {"measurement": "The level of expressed mRNA in the presence of chemical substance/The level of expressed mRNA in the absence of chemical substance", "setting": "yeast gene YOR130C", "value": 0.9},
      {"measurement": "The level of expressed mRNA in the presence of chemical substance/The level of expressed mRNA in the absence of chemical substance", "setting": "yeast gene YOR153W", "value": 4.0},
      {"measurement": "The level of expressed mRNA in the presence of chemical substance/The level of expressed mRNA in the absence of chemical substance", "setting": "yeast gene YOR270C", "value": 0.7},
      {"measurement": "The level of expressed mRNA in the presence of chemical substance/The level of expressed mRNA in the absence of chemical substance", "setting": "yeast gene YOR273C", "value": 0.8},
      {"measurement": "The level of expressed mRNA in the presence of chemical substance/The level of expressed mRNA in the absence of chemical substance", "setting": "yeast gene YOR316C", "value": 1.1},
      {"measurement": "The level of expressed mRNA in the presence of chemical substance/The level of expressed mRNA in the absence of chemical substance", "setting": "yeast gene YOR328W", "value": 1.8},
      {"measurement": "The level of expressed mRNA in the presence of chemical substance/The level of expressed mRNA in the absence of chemical substance", "setting": "yeast gene YOR332W", "value": 1.0},
      {"measurement": "The level of expressed mRNA in the presence of chemical substance/The level of expressed mRNA in the absence of chemical substance", "setting": "yeast gene YOR348C", "value": 0.7},
      {"measurement": "The level of expressed mRNA in the presence of chemical substance/The level of expressed mRNA in the absence of chemical substance", "setting": "yeast gene YPL036W", "value": 0.5},
      {"measurement": "The level of expressed mRNA in the presence of chemical substance/The level of expressed mRNA in the absence of chemical substance", "setting": "yeast gene YPL134C", "value": 0.8},
      {"measurement": "The level of expressed mRNA in the presence of chemical substance/The level of expressed mRNA in the absence of chemical substance", "setting": "yeast gene YPL265W", "value": 0.9},
      {"measurement": "The level of expressed mRNA in the presence of chemical substance/The level of expressed mRNA in the absence of chemical substance", "setting": "yeast gene YPL271W", "value": 0.8},
      {"measurement": "The level of expressed mRNA in the presence of chemical substance/The level of expressed mRNA in the absence of chemical substance", "setting": "yeast gene YPR124W", "value": 0.8},
      {"measurement": "The level of expressed mRNA in the presence of chemical substance/The level of expressed mRNA in the absence of chemical substance", "setting": "yeast gene YPR192W", "value": 0.5},
      {"measurement": "The level of expressed mRNA in the presence of chemical substance/The level of expressed mRNA in the absence of chemical substance", "setting": "yeast gene YPR194C", "value": 0.7}
    ]}
  ]
}
